{"source": "patent US20240390408A1", "about": "“METHOD OF TREATING HEPATITIS C VIRUS IN PATIENTS” (Altesa BioSciences, Inc., priority 2023, published 2024)", "key": {"[1]": {"assay": "Tissue concentrations of Formula I and its metabolites in Göttingen pigs after a single oral or intravenous dose (LC-MS/MS)", "format": "in vivo", "conditions": "for concentration at 2 h / concentration at 3 h: both sexes, Göttingen, pig (minipig), in vivo; for concentration at 2 h: 25 mg/kg; for concentration at 3 h: 125 mg/kg", "description": "Tissue samples were collected at 3, 12, and 24 hours post-dose (hpd) for the oral dose and 2 and 12 hpd for the intravenous dose, snap-frozen in liquid nitrogen, and stored at −60 to −90° C. until shipment on dry ice for analysis by LC-MS/MS.\nAnimals were weighed the day prior to dosing to determine the dosing volume.\nThe compound of Formula I was dissolved in a PEG 400/DI water (60%/40% v/v) vehicle for oral dosing. For IV dosing the compound of Formula I was dissolved in a PEG 400/Cremophor RH 40/Saline (40%/10%/50% v/v) vehicle and passed through a sterile filter. […] Animals were euthanized by euthanasia solution administration under sedation, if necessary (e.g., acepromazine and or/Telazol®), followed by a Testing Facility SOP approved method to ensure death (e.g., exsanguination). Tissues were collected from two animals per sex per timepoint. Tissue samples, including the brain, heart, kidney, liver, lung, spleen, pancreas, bone marrow, duodenum, jejunum, and colon, were collected in duplicate (approximately 50±20 mg each) and placed into two separate reinforced homogenization tubes per organ (one tissue sample per tube). The exact weight (in milligrams) of each sample was recorded. Tissues samples were flash frozen in liquid nitrogen and stored at −60 to −90° C. until shipment on dry ice for analysis by LC-MS/MS.\nMobile phase A consisted of 50 mM ammonium bicarbonate buffer in HPLC grade water pH 9.8 and mobile phase B consisted of pure acetonitrile. […] Mass spectrometry analysis was performed on a QTrap 7500 Mass Spectrometer (Sciex, Framingham, MA, USA) using negative mode electrospray ionization (ESI) in multiple reaction monitoring (MRM) mode. Data analysis was performed using SCIEX OS Software (Sciex, Framingham, MA, USA).\nTissue samples were collected at 3, 12, and 24 hours post-dose for the oral dose and 2 and 12 hour post-dose for the intravenous dose."}, "[2]": {"assay": "Stability in minipig plasma", "format": "in vitro ADME"}, "[3]": {"conditions": "liver, single oral dose of Formula I 125 mg/kg, 12 hpd"}, "[4]": {"conditions": "liver, single oral dose of Formula I 125 mg/kg, 24 hpd"}}, "note": "Like-named read-outs stand apart in the source and are kept apart here.", "data": [{"smiles": "CC(C)OC(=O)[C@H](C)N[P@](=O)(OC[C@H]1O[C@@H](n2ccc(=O)[nH]c2=S)C(C)(O)C1O)Oc1ccccc1", "note": "(some centres unmarked) [Formula I]", "values": [{"measurement": "Quantity detectable in organs", "setting": "[1]; all organs, 2-3 hours after IV or PO dosing", "value": "~0.1", "unit": "µM"}, {"measurement": "concentration at 2 h", "setting": "[1]; kidney, single intravenous bolus of Formula I 25 mg/kg, 2 hpd, read-out: Tissue concentration, kidney", "value": "85 ± 93.1", "unit": "ng/g"}, {"measurement": "concentration at 2 h", "setting": "[1]; liver, single intravenous bolus of Formula I 25 mg/kg, 2 hpd, read-out: Tissue concentration, liver", "value": "7.03 ± 8.24", "unit": "ng/g"}, {"measurement": "concentration at 2 h", "setting": "[1]; lung, single intravenous bolus of Formula I 25 mg/kg, 2 hpd, read-out: Tissue concentration, lung", "value": "51.8 ± 29.1", "unit": "ng/g"}, {"measurement": "concentration at 2 h", "setting": "[1]; spleen, single intravenous bolus of Formula I 25 mg/kg, 2 hpd, read-out: Tissue concentration, spleen", "value": "63.9 ± 29.8", "unit": "ng/g"}, {"measurement": "concentration at 3 h", "setting": "[1]; brain, single oral dose of Formula I 125 mg/kg, 3 hpd, read-out: Tissue concentration, brain", "value": "31.5 ± 63", "unit": "ng/g"}, {"measurement": "concentration at 3 h", "setting": "[1]; heart, single oral dose of Formula I 125 mg/kg, 3 hpd, read-out: Tissue concentration, heart", "value": "117 ± 105", "unit": "ng/g"}, {"measurement": "concentration at 3 h", "setting": "[1]; liver, single oral dose of Formula I 125 mg/kg, 3 hpd, read-out: Tissue concentration in Göttingen pig liver (Table 7)", "value": "496 ± 663", "unit": "nM"}, {"measurement": "concentration at 3 h", "setting": "[1]; liver, single oral dose of Formula I 125 mg/kg, 3 hpd, read-out: Tissue concentration, liver", "value": "270 ± 361", "unit": "ng/g"}, {"measurement": "concentration at 3 h", "setting": "[1]; lung, single oral dose of Formula I 125 mg/kg, 3 hpd, read-out: Tissue concentration, lung", "value": "38.6 ± 46.5", "unit": "ng/g"}, {"measurement": "concentration at 3 h", "setting": "[1]; spleen, single oral dose of Formula I 125 mg/kg, 3 hpd, read-out: Tissue concentration, spleen", "value": "88.4 ± 60.3", "unit": "ng/g"}, {"measurement": "Tissue concentration, brain", "setting": "[1]; brain, single intravenous bolus of Formula I 25 mg/kg, 2 hpd", "value": "BQL"}, {"measurement": "Tissue concentration, brain", "setting": "[1]; brain, single intravenous bolus of Formula I 25 mg/kg, 12 hpd", "value": "BQL"}, {"measurement": "Tissue concentration, brain", "setting": "[1]; brain, single oral dose of Formula I 125 mg/kg, 3 hpd", "value": "31.5 ± 63.0", "unit": "ng/g"}, {"measurement": "Tissue concentration, brain", "setting": "[1]; brain, single oral dose of Formula I 125 mg/kg, 12 hpd", "value": "BQL"}, {"measurement": "Tissue concentration, brain", "setting": "[1]; brain, single oral dose of Formula I 125 mg/kg, 24 hpd", "value": "BQL"}, {"measurement": "Tissue concentration, heart", "setting": "[1]; heart, single intravenous bolus of Formula I 25 mg/kg, 2 hpd", "value": "112 ± 69.0", "unit": "ng/g"}, {"measurement": "Tissue concentration, heart", "setting": "[1]; heart, single intravenous bolus of Formula I 25 mg/kg, 12 hpd", "value": "2.95 ± 5.90", "unit": "ng/g"}, {"measurement": "Tissue concentration, heart", "setting": "[1]; heart, single oral dose of Formula I 125 mg/kg, 12 hpd", "value": "BQL"}, {"measurement": "Tissue concentration, heart", "setting": "[1]; heart, single oral dose of Formula I 125 mg/kg, 24 hpd", "value": "BQL"}, {"measurement": "Tissue concentration, kidney", "setting": "[1]; kidney, single intravenous bolus of Formula I 25 mg/kg, 12 hpd", "value": "BQL"}, {"measurement": "Tissue concentration, kidney", "setting": "[1]; kidney, single oral dose of Formula I 125 mg/kg, 3 hpd", "value": "BQL"}, {"measurement": "Tissue concentration, kidney", "setting": "[1]; kidney, single oral dose of Formula I 125 mg/kg, 12 hpd", "value": "BQL"}, {"measurement": "Tissue concentration, kidney", "setting": "[1]; kidney, single oral dose of Formula I 125 mg/kg, 24 hpd", "value": "BQL"}, {"measurement": "Tissue concentration, liver", "setting": "[1]; liver, single intravenous bolus of Formula I 25 mg/kg, 2 hpd", "value": "7.03 ± 8.24", "unit": "ng/g"}, {"measurement": "Tissue concentration, liver", "setting": "[1]; liver, single intravenous bolus of Formula I 25 mg/kg, 12 hpd", "value": "BQL"}, {"measurement": "Tissue concentration, liver", "setting": "[1]; liver, single oral dose of Formula I 125 mg/kg, 3 hpd", "value": "270 ± 361", "unit": "ng/g"}, {"measurement": "Tissue concentration in Göttingen pig liver (Table 7)", "setting": "[1]; [3]", "value": "BQL"}, {"measurement": "Tissue concentration, liver", "setting": "[1]; [3]", "value": "BQL"}, {"measurement": "Tissue concentration in Göttingen pig liver (Table 7)", "setting": "[1]; [4]", "value": "BQL"}, {"measurement": "Tissue concentration, liver", "setting": "[1]; [4]", "value": "BQL"}, {"measurement": "Tissue concentration, lung", "setting": "[1]; lung, single intravenous bolus of Formula I 25 mg/kg, 12 hpd", "value": "BQL"}, {"measurement": "Tissue concentration, lung", "setting": "[1]; lung, single oral dose of Formula I 125 mg/kg, 12 hpd", "value": "BQL"}, {"measurement": "Tissue concentration, lung", "setting": "[1]; lung, single oral dose of Formula I 125 mg/kg, 24 hpd", "value": "BQL"}, {"measurement": "Tissue concentration, spleen", "setting": "[1]; spleen, single intravenous bolus of Formula I 25 mg/kg, 12 hpd", "value": "BQL"}, {"measurement": "Tissue concentration, spleen", "setting": "[1]; spleen, single oral dose of Formula I 125 mg/kg, 12 hpd", "value": "BQL"}, {"measurement": "Tissue concentration, spleen", "setting": "[1]; spleen, single oral dose of Formula I 125 mg/kg, 24 hpd", "value": "BQL"}, {"measurement": "Stability in minipig plasma", "setting": "[2]", "value": "good stability"}]}]}
